The values that follow come from PMC5291514, “Structure activity relationship and modeling studies of inhibitors of lysine specific demethylase 1” (PLoS ONE, 2017).

Molecules are shown by their SMILES.

One test addresses T1, recombinant human LSD1 (Homo sapiens, UniProt O60341).
T1 construct: Human LSD1 catalytic domain, consisting of residues 172–833; GST (N); made in house; host or cells: Escherichia coli BL21-CodonPlus
In words: LSD1 enzyme inhibition, HRP-coupled Amplex red assay. Format: biochemical. The settings on record: for fold more active against LSD1 than compound 24: comparator compound 24; for Selectivity index for LSD1: LSD1 versus MAO-A and -B; for fold less active against LSD1 than 10: comparator compound 10; for selectivity for LSD1 inhibition: LSD1 over MAO-A/-B. On the procedure:
Human LSD1 catalytic domain, consisting of residues 172–833, was expressed in Escherichia coli BL21-CodonPlus strain (Agilent) as a GST fusion protein, by using a pGEX-KG vector. Briefly, the cells were grown to late log phase at 37°C and then were induced overnight with 0.2 mM IPTG at 25°C. Cells were harvested and lysed by French Press in PBS buffer and the supernatant was subjected to an affinity column chromatography using the glutathione sepharose resin. The eluted LSD1 fractions were further purified with ~90% purity by gel filtration on a Superdex 200 column (GE healthcare).
Horseradish peroxidase (HRP)-coupled assay was used for the evaluation of the inhibitors, based on the reaction rate (i.e., amount of the product H2O2) being quantitatively determined by adding HRP and a HRP fluorescence substrate Amplex red.[20] 30 nM LSD1 was incubated with increasing concentrations of a compound in 50 mM phosphate buffer (pH = 7.0 containing 0.01% Brij-35) for 30 min at 25°C. […] The final volume of the reaction is 60 μL. Upon 20 min incubation, 60 μL solution containing HRP (0.01 unit) and Amplex red (80 μM) was added to quench the reaction. The fluorescence of each well was then determined using a Beckman DTX-880 microplate reader (excitation at 535; emission at 595 nm). Data were imported into Prism 5.0 (GraphPad) and the IC50 values were calculated by using the sigmoidal dose response curve fitting in the software. The reported IC50s were the mean values of at least three independent experiments.

For another test, the target named is T2, human MAO-B (Homo sapiens, UniProt P27338).
T2 construct: purchased Sigma
T2 sequence (P27338 1-520): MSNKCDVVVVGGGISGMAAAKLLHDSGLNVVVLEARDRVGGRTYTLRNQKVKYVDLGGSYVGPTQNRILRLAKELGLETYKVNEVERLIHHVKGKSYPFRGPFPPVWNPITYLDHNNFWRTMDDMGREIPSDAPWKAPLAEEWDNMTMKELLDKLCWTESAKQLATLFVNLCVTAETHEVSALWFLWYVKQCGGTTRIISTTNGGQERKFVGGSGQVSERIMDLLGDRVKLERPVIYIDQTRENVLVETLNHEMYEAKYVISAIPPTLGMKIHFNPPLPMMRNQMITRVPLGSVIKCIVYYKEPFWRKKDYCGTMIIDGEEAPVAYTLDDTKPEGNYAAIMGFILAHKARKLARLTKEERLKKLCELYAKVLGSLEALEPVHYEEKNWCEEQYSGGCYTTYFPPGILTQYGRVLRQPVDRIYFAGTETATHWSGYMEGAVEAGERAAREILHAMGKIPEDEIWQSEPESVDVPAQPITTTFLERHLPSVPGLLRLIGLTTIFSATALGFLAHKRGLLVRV
Briefly: Inhibition of MAO-B, MAO-Glo assay kit. The test is classed as biochemical. Particulars: Table 2; 100 nM MAO-B, 60 min. The method, then:
(§1) Inhibition of MAO-A and -B was determined using MAO-Glo assay kit (Promega). Following the manufacturer’s protocol, assays were performed in 384 well white plates (Corning) in the presence of 100 nM MAO-A/-B (Sigma) and MAO substrate. The final volume of each reaction mixture was 20 μL. Reactions were quenched after 60 min by adding reconstituted luciferin detection reagent (20 μL/well). 20 min after addition of detection reagent, the plate was measured in luminescence mode using Beckman DTX-880 microplate reader. IC50 calculation was done similarly.

The target in a further test is T3, human MAO-A (Homo sapiens, UniProt P21397).
T3 construct: purchased Sigma
T3 sequence (P21397 1-527): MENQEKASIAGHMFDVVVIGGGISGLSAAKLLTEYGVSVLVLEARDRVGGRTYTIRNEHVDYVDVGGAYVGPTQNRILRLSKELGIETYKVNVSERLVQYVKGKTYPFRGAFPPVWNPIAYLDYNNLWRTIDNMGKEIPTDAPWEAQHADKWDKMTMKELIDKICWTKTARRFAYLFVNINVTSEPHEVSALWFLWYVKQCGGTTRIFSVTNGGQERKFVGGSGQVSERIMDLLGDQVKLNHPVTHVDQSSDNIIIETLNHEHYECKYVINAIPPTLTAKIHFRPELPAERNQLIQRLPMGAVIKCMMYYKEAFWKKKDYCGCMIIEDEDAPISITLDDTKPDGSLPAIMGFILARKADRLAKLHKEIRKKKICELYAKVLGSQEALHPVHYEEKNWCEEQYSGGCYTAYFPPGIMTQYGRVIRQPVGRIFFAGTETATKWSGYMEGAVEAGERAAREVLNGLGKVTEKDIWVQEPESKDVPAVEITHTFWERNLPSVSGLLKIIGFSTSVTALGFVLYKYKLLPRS
In words: Inhibition of MAO-A, MAO-Glo assay kit. Format: biochemical. Particulars: Table 2; 100 nM MAO-A, 60 min. On the procedure: as §1

Another test deals with MAO-A and -B. In words: Inhibition of MAO-A/-B, MAO-Glo assay kit, one range given over both enzymes. Format: biochemical, human. Particulars: range over both enzymes and the named compounds; read-out: IC50 against MAO-A and -B. The method, then:
as §1

[1] abbreviates: Table 1, 30 nM LSD1, 30 min preincubation, 10 μM H3K4Me2 peptide.

Usually IC50 stands for the concentration needed to halve the response being measured. Take `Brc1ccc(C=NC2CC2c2ccc(Br)cc2)cc1` (racemic) [Compound 25]: the IC50 on recombinant human LSD1 (setting [1]) turned out to be 1.2 µM. At recombinant human LSD1, the “fold more active against LSD1 than compound 24” value is reported as greater than 10 ×.
`O=C(CNC1CC1c1ccc(Br)cc1)N1CCCCC1` (racemic) [Compound 11]: the IC50 on recombinant human LSD1 (setting [1]) is 0.62 µM; on recombinant human LSD1 (Table 2) it was 0.62 µM; at human MAO-B it was 0.51 µM; at human MAO-A, 0.26 µM. The “Selectivity index for LSD1” value at recombinant human LSD1 (Table 2) is less than 0.82. For the same compound, the “fold less active against LSD1 than 10” value on recombinant human LSD1 was ~ 10 ×.
With `O=C(CNNC1CC1c1ccccc1)N1CCNCC1` (racemic) [Compound 32], the “selectivity for LSD1 inhibition” value at recombinant human LSD1 is greater than 150 fold. The IC50 at recombinant human LSD1 (setting [1]) was 0.67 µM; on recombinant human LSD1 (Table 2), 0.67 µM; against human MAO-B it was 370 µM; at human MAO-A, 97.5 µM. Besides, the “Selectivity index for LSD1” value at recombinant human LSD1 (Table 2) is greater than 145. For the same compound, on recombinant human LSD1 (comparator compound 13), the “fold less active against LSD1 than cyclopropylamine analog 13” value is on record as ~ 3 ×. For the same compound, the “fold enhanced LSD1 activity over 31” value on recombinant human LSD1 (comparator compound 31) is listed as ~ 9 fold.
`Brc1ccc(C2CC2N=Cc2ccncc2)cc1` (racemic) [Compound 30]: the “LSD1 inhibitory activity in words” value on recombinant human LSD1 is “only modest activities”. In addition, on recombinant human LSD1 (setting [1]), the IC50 worked out at 14 µM.
With `Nc1ccc(CNC2CC2c2ccc(Br)cc2)cc1` (racemic) [Compound 19], the IC50 at recombinant human LSD1 (setting [1]) was greater than 100 µM.
On the same count and under the same terms, as for `CN(C)c1ccc(CNC2CC2c2ccc(Br)cc2)cc1` (racemic) [Compound 20], the figure is 71 µM.
Turning to `CN1CCN(C(=O)CNC2CC2c2ccc(-c3ccc(F)nc3)cc2)CC1` (racemic) [Compound 2, reference compound], the IC50 at recombinant human LSD1 (setting [1]) came out at 0.077 µM; on recombinant human LSD1 (Table 2) it was 0.077 µM; at human MAO-B it was 480 µM; against human MAO-A, 120 µM. Besides, the “Selectivity index for LSD1” value at recombinant human LSD1 (Table 2) is >1,500.
In the case of `CN1CCN(C(=O)CNC2CC2c2ccc(Br)cc2)CC1` (racemic) [Compound 3, reference compound], the IC50 is 0.035 µM at recombinant human LSD1 (setting [1]), 0.035 µM on recombinant human LSD1 (Table 2), 16.3 µM at human MAO-B and 7.3 µM at human MAO-A. Moreover, the “Selectivity index for LSD1” value at recombinant human LSD1 (Table 2) is greater than 208.
As to `CN1CCN(C(=O)CNCC#Cc2ccccc2)CC1` [Compound 35, 1-(4-methylpiperazin-1-yl)-2-((3-phenylprop-2-yn-1-yl)amino)ethan-1-one], the IC50 at recombinant human LSD1 (setting [1]) was determined as 36.4 µM.
As to `Brc1ccc(C2CC2NCc2ccncc2)cc1` (racemic) [Compound 21], the IC50 on recombinant human LSD1 (setting [1]) is greater than 100 µM.
On the same count and under the same terms, as for `O=C(Nc1ccccc1)NC1CC1c1ccc(Br)cc1` (racemic) [Compound 23], the figure is 7.4 µM.
Turning to `CN(C)c1ccc(C=NC2CC2c2ccc(Br)cc2)cc1` (racemic) [Compound 29], at recombinant human LSD1, the “LSD1 inhibitory activity in words” value is given as “only modest activities”. Further, the concentration for half-maximal inhibition (IC50) at recombinant human LSD1 (setting [1]) was 11 µM.
Turning to `O=C(CNC1CC1c1ccccc1)N1CCNCC1` (racemic) [Compound 13], the IC50 at recombinant human LSD1 (setting [1]) is 0.19 µM. Moreover, the “fold more active against LSD1 than 14” value on recombinant human LSD1 (comparator compound 14) was ~ 7 fold.
With `O=C(NNC1CC1c1ccccc1)N1CCNCC1` (racemic) [Compound 33], on recombinant human LSD1 (setting [1]), the IC50 came out at 84 µM.
For `Brc1ccc(C2CC2NCc2ccccc2)cc1` (stereo not shown) [Compound 17], at recombinant human LSD1 (setting [1]), the IC50 came out at 5 µM.
The same measure, in the same setting: as for `Brc1ccc(C2CC2NCC2CCNCC2)cc1` (racemic) [Compound 15], the figure is 0.26 µM; as for `CN1CCN(C(=O)CNC2CC2c2cccc(Br)c2)CC1` (racemic) [Compound 6], greater than 100 µM.
Consider `COc1cccc(C=NC2CC2c2ccc(Br)cc2)c1` (racemic) [Compound 27], for which the IC50 on recombinant human LSD1 (setting [1]) turned out to be 0.9 µM. Further, the “fold more active against LSD1 than compound 24” value on recombinant human LSD1 is given as greater than 10 ×.
Take `NNC1CC1c1ccccc1` (stereo not drawn) [Compound 31, Trans-phenyl cyclopropyl hydrazine]: the results for the IC50 on recombinant human LSD1 (setting [1]), at human MAO-B and against human MAO-A were 5.8 µM, 87 µM and 40.7 µM, respectively. Further, the “Selectivity index for LSD1” value at recombinant human LSD1 (Table 2) is on record as greater than 7.
Consider `NC1CC1c1ccc(OCc2ccccc2)cc1` (racemic) [Compound 7], for which the IC50 at MAO-A and -B was 0.17 to 3.1 µM; at recombinant human LSD1 (setting [1]), 0.91 µM; on recombinant human LSD1 (Table 2), 0.91 µM; on human MAO-B, 0.35 µM; on human MAO-A, 0.17 µM. Also, the “fold less active against LSD1 than the corresponding compounds 1–3” value on recombinant human LSD1 (7 vs 1, 8 vs 2, 9 vs 3) amounted to 92 fold. In addition, the “Selectivity index for LSD1” value on recombinant human LSD1 (Table 2) is less than 0.38.
Turning to `CN1CCN(C(=O)CNC2CC2c2ccc(-c3ccc(Cl)nc3)cc2)CC1` (racemic) [Compound 4], at recombinant human LSD1 (setting [1]), the IC50 was determined as 0.15 µM.
For `COc1ccccc1C=NC1CC1c1ccc(Br)cc1` (racemic) [Compound 26], the “selectivity for LSD1 inhibition” value at recombinant human LSD1 was “no LSD1 selectivity was observed”. Further, the IC50 was 0.74 µM on recombinant human LSD1 (setting [1]), 0.74 µM on recombinant human LSD1 (Table 2), 0.4 µM against human MAO-B and 0.3 µM on human MAO-A. In addition, the “Selectivity index for LSD1” value at recombinant human LSD1 (Table 2) was less than 0.54. Besides, the “fold more active against LSD1 than compound 24” value on recombinant human LSD1 is on record as greater than 10 ×.
In the case of `CC(=O)NC1CC1c1ccc(Br)cc1` (racemic) [Compound 22], on recombinant human LSD1 (setting [1]), the IC50 amounted to 15.4 µM.
With `Brc1ccc(C2CC2NNCC2CCNCC2)cc1` (racemic) [Compound 34], the IC50 at recombinant human LSD1 (setting [1]) is 1.7 µM. In addition, at recombinant human LSD1 (comparator compound 15), the “fold less active against LSD1 than cyclopropylamine analog 15” value was ~ 7 ×.
As for `O=C(CNC1CC1c1ccccc1)N1CCCCC1` (racemic) [Compound 14], the IC50 at recombinant human LSD1 (setting [1]) stood at 1.3 µM.
On the same count and under the same terms, as for `Oc1ccc(CNC2CC2c2ccc(Br)cc2)cc1` (racemic) [Compound 18], the figure is 94 µM.
As for `O=C(CNC1CC1c1ccc(Br)cc1)N1CCCC1` (racemic) [Compound 12], the IC50 on recombinant human LSD1 (setting [1]) came out at 3.6 µM. For the same compound, at recombinant human LSD1, the “fold less active against LSD1 than 10” value was roughly 56 ×.
On to `CN1CCN(C(=O)CNC2CC2c2ccccc2Br)CC1` (racemic) [Compound 5], for which the IC50 on recombinant human LSD1 (setting [1]) was greater than 100 µM.
On the same count and under the same terms, as for `Brc1ccc(C2CC2N=Cc2ccccc2)cc1` (racemic) [Compound 24], the figure is 15.6 µM.
As to `O=C(CNC1CC1c1ccc(Br)cc1)N1CCNCC1` (racemic) [Compound 10], the IC50 stood at 0.064 µM on recombinant human LSD1 (setting [1]), 0.064 µM at recombinant human LSD1 (Table 2), 23.1 µM against human MAO-B and 18.1 µM at human MAO-A. In addition, on recombinant human LSD1 (Table 2), the “Selectivity index for LSD1” value is reported as greater than 280.
